Results taken from ChEMBL document CHEMBL1130823, “New tetrahydronaphthalene derivatives as combined thromboxane receptor antagonists and thromboxane synthase inhibitors” (Bioorg Med Chem Lett, 1998).

Experiments:
Homo sapiens = species: Homo sapiens; test: Inhibitory concentration required for the inhibition of U-46,619 induced aggregation of human platelets.; format: functional
Oryctolagus cuniculus = species: Oryctolagus cuniculus; test: Inhibition of U-46,619 induced contraction of isolated rabbit saphenous vein.; format: functional; details: read-out: pA2 (converted)
Thromboxane-A synthase = biological target: T1, Thromboxane-A synthase (Homo sapiens, UniProt P24557); test: Anti-synthetase activity against TXA2 synthase in human whole blood assay; format: tissue-based
T1 sequence (P24557 whole entry): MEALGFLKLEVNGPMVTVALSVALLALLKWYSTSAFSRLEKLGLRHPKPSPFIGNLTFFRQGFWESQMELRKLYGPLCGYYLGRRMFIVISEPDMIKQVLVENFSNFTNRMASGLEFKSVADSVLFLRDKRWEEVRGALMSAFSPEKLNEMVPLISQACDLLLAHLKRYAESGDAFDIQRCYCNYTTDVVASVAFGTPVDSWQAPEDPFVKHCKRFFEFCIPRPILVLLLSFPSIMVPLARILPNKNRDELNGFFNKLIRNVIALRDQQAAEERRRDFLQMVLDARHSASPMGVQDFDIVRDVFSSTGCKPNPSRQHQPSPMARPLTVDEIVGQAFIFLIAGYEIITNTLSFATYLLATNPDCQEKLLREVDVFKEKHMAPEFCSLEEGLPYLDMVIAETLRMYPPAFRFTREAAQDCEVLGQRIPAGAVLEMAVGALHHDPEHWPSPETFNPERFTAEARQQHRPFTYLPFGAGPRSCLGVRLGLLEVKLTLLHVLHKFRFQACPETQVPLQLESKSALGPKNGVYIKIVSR

SMILES	IC50 (Homo sapiens) [nM]	IC50 (Thromboxane-A synthase) [nM]	Kb (Oryctolagus cuniculus) [nM]
O=C(O)CCc1cc(-c2cccnc2)cc2c1CCC(NS(=O)(=O)c1ccc(Cl)cc1)C2 (stereo not drawn)	670	> 5000	12.6
O=C(O)CCC/C=C\c1cc(Cc2cccnc2)cc2c1CCC(NS(=O)(=O)c1ccc(Cl)cc1)C2 (stereo not drawn)	90	4200	2.51
O=C(O)CCc1c(-c2cccnc2)ccc2c1CCC(NS(=O)(=O)c1ccc(Cl)cc1)C2 (stereo not drawn)	140	> 10000	0.2
CCCc1c(Cc2cccnc2)cc2c(c1CCC(=O)O)CCC(NS(=O)(=O)c1ccc(Cl)cc1)C2 (stereo not drawn)	63	640	3.98
O=C(O)CC/C=C/c1cc(Cc2cccnc2)cc2c1CCC(NS(=O)(=O)c1ccc(Cl)cc1)C2 (stereo not drawn)	9	> 10000	0.398
O=C(O)CCc1c(Cc2cccnc2)ccc2c1CCC(NS(=O)(=O)c1ccc(Cl)cc1)C2 (stereo not drawn)	20	> 10000	0.316
O=C(O)CCc1c2c(cc(Cc3cccnc3)c1-c1ccccc1)CC(NS(=O)(=O)c1ccc(Cl)cc1)CC2 (stereo not drawn)	180	> 10000	0.794
Cc1c(Cc2cccnc2)cc2c(c1CCC(=O)O)CCC(NS(=O)(=O)c1ccc(Cl)cc1)C2 (stereo not drawn)	610	850	158
O=C(O)CCC/C=C\c1c(Cc2cccnc2)ccc2c1CCC(NS(=O)(=O)c1ccc(Cl)cc1)C2 (stereo not drawn)	160	350	0.2
O=C(O)CC/C=C/c1c(Cc2cccnc2)ccc2c1CCC(NS(=O)(=O)c1ccc(Cl)cc1)C2 (stereo not drawn)	47	1400	0.00794
O=C(O)CCc1cc(Cc2cccnc2)cc2c1CCC(NS(=O)(=O)c1ccc(Cl)cc1)C2 (stereo not drawn)	7	1100	0.2

Continued by falling IC50 (Homo sapiens), values first:

IC50 (Homo sapiens) [nM]	IC50 (Thromboxane-A synthase) [nM]	SMILES	Kb (Oryctolagus cuniculus) [nM]
1200	> 5000	O=C(O)CCC/C=C/c1cc(Cc2cccnc2)cc2c1CCC(NS(=O)(=O)c1ccc(Cl)cc1)C2 (stereo not drawn)	2
1000	960	Cc1c(Cc2cccnc2)cc2c(c1/C=C\CCCC(=O)O)CCC(NS(=O)(=O)c1ccc(Cl)cc1)C2 (stereo not drawn)	10
460	2900	Cc1c(Cc2cccnc2)cc2c(c1/C=C/CCCC(=O)O)CCC(NS(=O)(=O)c1ccc(Cl)cc1)C2 (stereo not drawn)	7.94
450	1100	O=C(O)CCC/C=C/c1c(Cc2cccnc2)ccc2c1CCC(NS(=O)(=O)c1ccc(Cl)cc1)C2 (stereo not drawn)	1.26
270	6600	CCCCCc1c(Cc2cccnc2)cc2c(c1CCC(=O)O)CCC(NS(=O)(=O)c1ccc(Cl)cc1)C2 (stereo not drawn)	1.58
